{"source": "paper PMC4286029", "about": "(Inflammation Research, 2014)", "key": {"[1]": {"target": "T1, Aurora-A (Homo sapiens, UniProt O14965)", "T1 construct": "purchased Millipore Co. Ltd. (KinaseProfiler service)", "T1 sequence (O14965 whole entry)": "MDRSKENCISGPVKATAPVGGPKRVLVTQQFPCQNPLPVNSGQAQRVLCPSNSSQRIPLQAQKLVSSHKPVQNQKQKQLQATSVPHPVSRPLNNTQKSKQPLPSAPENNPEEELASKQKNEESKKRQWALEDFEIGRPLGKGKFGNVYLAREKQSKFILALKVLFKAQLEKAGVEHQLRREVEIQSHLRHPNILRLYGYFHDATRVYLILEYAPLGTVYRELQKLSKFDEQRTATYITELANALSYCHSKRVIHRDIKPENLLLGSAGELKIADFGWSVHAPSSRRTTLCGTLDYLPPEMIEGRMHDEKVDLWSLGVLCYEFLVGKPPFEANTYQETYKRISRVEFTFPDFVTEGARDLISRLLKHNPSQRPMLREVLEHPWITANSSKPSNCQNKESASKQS", "experiment": "KinaseProfiler selectivity: Aurora-A", "assay_type": "biochemical", "description": "(§1) […]; The selectivity of JTE-052 for other kinases was assessed using KinaseProfiler™ (Millipore Co. Ltd.). […]."}, "[2]": {"target": "T2, CHK1 (Homo sapiens, UniProt O14757)", "T2 construct": "purchased Millipore Co. Ltd. (KinaseProfiler service)", "experiment": "KinaseProfiler selectivity: CHK1", "assay_type": "biochemical", "description": "as §1"}, "[3]": {"target": "T3, CK2 (Homo sapiens, UniProt P68400)", "T3 construct": "purchased Millipore Co. Ltd. (KinaseProfiler service)", "experiment": "KinaseProfiler selectivity: CK2", "assay_type": "biochemical", "description": "as §1"}, "[4]": {"target": "T4, c-RAF (Homo sapiens, UniProt P04049)", "T4 construct": "purchased Millipore Co. Ltd. (KinaseProfiler service)", "T4 sequence (P04049 whole entry, species assumed)": "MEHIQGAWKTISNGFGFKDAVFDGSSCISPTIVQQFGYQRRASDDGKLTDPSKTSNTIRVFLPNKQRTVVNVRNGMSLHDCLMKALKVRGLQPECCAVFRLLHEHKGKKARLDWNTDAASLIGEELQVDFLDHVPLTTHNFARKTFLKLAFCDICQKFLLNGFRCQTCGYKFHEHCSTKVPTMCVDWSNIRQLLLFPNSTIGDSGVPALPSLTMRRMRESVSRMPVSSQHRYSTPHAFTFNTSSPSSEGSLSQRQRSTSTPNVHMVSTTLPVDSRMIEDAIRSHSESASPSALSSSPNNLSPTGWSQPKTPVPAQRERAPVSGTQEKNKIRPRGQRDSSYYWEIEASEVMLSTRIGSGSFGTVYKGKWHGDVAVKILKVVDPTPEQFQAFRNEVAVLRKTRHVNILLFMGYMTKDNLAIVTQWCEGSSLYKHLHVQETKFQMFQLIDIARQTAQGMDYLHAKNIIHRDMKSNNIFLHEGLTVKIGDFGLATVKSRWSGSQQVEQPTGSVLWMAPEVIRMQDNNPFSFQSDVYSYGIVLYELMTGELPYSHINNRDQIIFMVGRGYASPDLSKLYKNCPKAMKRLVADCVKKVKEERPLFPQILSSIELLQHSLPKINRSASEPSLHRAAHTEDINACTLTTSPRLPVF", "experiment": "KinaseProfiler selectivity: c-RAF", "assay_type": "biochemical", "description": "as §1"}, "[5]": {"target": "T5, FGFR1 (Homo sapiens, UniProt P11362)", "T5 construct": "purchased Millipore Co. Ltd. (KinaseProfiler service)", "experiment": "KinaseProfiler selectivity: FGFR1", "assay_type": "biochemical", "description": "as §1"}, "[6]": {"target": "T6, Flt1 (Homo sapiens, UniProt P17948)", "T6 construct": "purchased Millipore Co. Ltd. (KinaseProfiler service)", "experiment": "KinaseProfiler selectivity: Flt1", "assay_type": "biochemical", "description": "as §1"}, "[7]": {"target": "T7, Fyn (Homo sapiens, UniProt P06241)", "T7 construct": "purchased Millipore Co. Ltd. (KinaseProfiler service)", "experiment": "KinaseProfiler selectivity: Fyn", "assay_type": "biochemical", "description": "as §1"}, "[8]": {"target": "T8, IGF-1R (Homo sapiens, UniProt P08069)", "T8 construct": "purchased Millipore Co. Ltd. (KinaseProfiler service)", "experiment": "KinaseProfiler selectivity: IGF-1R", "assay_type": "biochemical", "description": "as §1"}, "[9]": {"target": "T9, KDR (Homo sapiens, UniProt P35968)", "T9 construct": "purchased Millipore Co. Ltd. (KinaseProfiler service)", "T9 sequence (P35968 20-1356, species assumed)": "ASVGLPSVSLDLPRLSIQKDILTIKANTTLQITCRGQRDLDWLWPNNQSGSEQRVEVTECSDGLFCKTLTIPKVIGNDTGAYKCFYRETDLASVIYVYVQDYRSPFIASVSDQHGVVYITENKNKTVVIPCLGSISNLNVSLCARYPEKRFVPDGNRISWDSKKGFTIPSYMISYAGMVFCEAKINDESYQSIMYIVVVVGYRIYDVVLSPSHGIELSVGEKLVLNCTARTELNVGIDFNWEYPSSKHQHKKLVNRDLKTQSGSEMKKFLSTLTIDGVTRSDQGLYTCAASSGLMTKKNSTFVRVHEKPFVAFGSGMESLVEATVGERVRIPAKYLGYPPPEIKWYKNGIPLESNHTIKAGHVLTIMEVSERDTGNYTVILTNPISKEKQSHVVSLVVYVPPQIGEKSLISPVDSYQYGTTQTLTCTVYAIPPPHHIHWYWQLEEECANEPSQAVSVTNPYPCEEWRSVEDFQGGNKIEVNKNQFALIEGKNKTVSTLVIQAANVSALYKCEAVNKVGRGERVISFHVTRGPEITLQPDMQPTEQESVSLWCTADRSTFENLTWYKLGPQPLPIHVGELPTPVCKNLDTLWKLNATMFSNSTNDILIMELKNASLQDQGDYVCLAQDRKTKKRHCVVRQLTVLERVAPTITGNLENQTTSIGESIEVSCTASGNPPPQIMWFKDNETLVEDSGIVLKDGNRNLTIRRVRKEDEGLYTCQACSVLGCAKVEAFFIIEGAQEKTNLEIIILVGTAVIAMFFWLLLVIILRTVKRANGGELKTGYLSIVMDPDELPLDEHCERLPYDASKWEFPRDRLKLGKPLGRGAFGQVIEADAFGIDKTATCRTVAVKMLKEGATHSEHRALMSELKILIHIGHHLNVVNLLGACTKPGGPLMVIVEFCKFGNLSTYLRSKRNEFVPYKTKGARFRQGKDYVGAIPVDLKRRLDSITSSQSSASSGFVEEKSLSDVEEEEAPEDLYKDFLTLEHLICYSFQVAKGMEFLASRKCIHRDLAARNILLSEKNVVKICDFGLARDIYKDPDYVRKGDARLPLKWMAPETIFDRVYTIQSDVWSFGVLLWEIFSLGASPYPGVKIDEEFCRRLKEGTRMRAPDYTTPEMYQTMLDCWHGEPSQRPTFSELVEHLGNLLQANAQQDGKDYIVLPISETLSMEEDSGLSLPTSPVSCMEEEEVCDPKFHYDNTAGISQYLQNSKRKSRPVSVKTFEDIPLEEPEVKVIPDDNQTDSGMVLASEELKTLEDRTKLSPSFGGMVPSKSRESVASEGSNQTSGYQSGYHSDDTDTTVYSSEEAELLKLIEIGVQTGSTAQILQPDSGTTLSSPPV", "experiment": "KinaseProfiler selectivity: KDR", "assay_type": "biochemical", "description": "as §1"}, "[10]": {"target": "T10, Lyn (Homo sapiens, UniProt P07948)", "T10 construct": "purchased Millipore Co. Ltd. (KinaseProfiler service)", "experiment": "KinaseProfiler selectivity: Lyn", "assay_type": "biochemical", "description": "as §1"}, "[11]": {"target": "T11, MAPK2 (Homo sapiens, UniProt P28482)", "T11 construct": "purchased Millipore Co. Ltd. (KinaseProfiler service)", "experiment": "KinaseProfiler selectivity: MAPK2", "assay_type": "biochemical", "description": "as §1"}, "[12]": {"target": "T12, MAPKAP-K2 (Homo sapiens, UniProt P49137)", "T12 construct": "purchased Millipore Co. Ltd. (KinaseProfiler service)", "experiment": "KinaseProfiler selectivity: MAPKAP-K2", "assay_type": "biochemical", "description": "as §1"}, "[13]": {"target": "T13, p70S6 K (Homo sapiens, UniProt P23443)", "T13 construct": "purchased Millipore Co. Ltd. (KinaseProfiler service)", "T13 sequence (P23443 whole entry)": "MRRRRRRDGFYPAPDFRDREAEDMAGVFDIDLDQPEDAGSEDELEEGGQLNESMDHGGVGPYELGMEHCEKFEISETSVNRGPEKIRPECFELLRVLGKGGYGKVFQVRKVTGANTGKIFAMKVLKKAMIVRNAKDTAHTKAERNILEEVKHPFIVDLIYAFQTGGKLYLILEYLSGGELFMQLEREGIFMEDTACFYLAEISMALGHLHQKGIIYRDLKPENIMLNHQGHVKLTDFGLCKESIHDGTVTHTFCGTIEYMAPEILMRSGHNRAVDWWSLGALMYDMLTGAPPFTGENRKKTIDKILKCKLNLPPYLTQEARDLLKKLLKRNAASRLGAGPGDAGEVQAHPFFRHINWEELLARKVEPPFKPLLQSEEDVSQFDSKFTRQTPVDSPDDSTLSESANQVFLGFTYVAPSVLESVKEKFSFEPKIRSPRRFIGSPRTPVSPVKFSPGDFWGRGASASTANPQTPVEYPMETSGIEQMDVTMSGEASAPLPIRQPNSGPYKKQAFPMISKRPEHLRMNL", "experiment": "KinaseProfiler selectivity: p70S6 K", "assay_type": "biochemical", "description": "as §1"}, "[14]": {"target": "T14, PDGFRβ (Homo sapiens, UniProt P09619)", "T14 construct": "purchased Millipore Co. Ltd. (KinaseProfiler service)", "T14 sequence (P09619 33-1106, species assumed)": "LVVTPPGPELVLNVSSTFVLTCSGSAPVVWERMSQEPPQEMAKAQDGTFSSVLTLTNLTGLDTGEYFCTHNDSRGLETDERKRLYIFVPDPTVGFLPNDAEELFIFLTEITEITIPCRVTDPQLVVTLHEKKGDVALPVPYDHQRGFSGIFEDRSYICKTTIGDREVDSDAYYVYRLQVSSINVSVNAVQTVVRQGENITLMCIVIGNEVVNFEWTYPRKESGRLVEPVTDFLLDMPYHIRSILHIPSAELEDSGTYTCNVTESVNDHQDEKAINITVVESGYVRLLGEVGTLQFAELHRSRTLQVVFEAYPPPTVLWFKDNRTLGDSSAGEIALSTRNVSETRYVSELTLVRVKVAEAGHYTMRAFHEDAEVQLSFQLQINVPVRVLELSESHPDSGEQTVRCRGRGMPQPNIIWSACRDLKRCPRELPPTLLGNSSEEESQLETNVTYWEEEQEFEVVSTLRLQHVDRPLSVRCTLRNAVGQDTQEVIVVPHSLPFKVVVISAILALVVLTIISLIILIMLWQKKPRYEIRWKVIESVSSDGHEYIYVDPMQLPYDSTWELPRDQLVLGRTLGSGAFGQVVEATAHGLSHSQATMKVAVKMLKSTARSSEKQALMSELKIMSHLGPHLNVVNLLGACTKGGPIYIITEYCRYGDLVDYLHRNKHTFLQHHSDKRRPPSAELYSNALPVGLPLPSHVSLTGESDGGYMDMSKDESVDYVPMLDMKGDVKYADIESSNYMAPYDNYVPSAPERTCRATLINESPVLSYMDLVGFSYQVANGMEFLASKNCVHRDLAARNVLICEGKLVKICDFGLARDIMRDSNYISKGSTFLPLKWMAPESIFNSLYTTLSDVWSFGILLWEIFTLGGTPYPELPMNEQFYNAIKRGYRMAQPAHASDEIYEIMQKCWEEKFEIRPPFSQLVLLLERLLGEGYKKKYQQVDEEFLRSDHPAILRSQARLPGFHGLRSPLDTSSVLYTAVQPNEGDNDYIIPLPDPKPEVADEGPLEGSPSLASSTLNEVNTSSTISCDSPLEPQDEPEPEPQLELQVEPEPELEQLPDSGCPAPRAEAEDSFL", "experiment": "KinaseProfiler selectivity: PDGFRβ", "assay_type": "biochemical", "description": "as §1"}, "[15]": {"target": "T15, PKBα (Homo sapiens, UniProt P31749)", "T15 construct": "purchased Millipore Co. Ltd. (KinaseProfiler service)", "experiment": "KinaseProfiler selectivity: PKBα", "assay_type": "biochemical", "description": "as §1"}, "[16]": {"target": "T16, PKCα (Homo sapiens, UniProt P17252)", "T16 construct": "purchased Millipore Co. Ltd. (KinaseProfiler service)", "experiment": "KinaseProfiler selectivity: PKCα", "assay_type": "biochemical", "description": "as §1"}, "[17]": {"target": "T17, PKCγ (Homo sapiens, UniProt P05129)", "T17 construct": "purchased Millipore Co. Ltd. (KinaseProfiler service)", "experiment": "KinaseProfiler selectivity: PKCγ", "assay_type": "biochemical", "description": "as §1"}, "[18]": {"target": "T18, PKCζ (Homo sapiens, UniProt Q05513)", "T18 construct": "purchased Millipore Co. Ltd. (KinaseProfiler service)", "experiment": "KinaseProfiler selectivity: PKCζ", "assay_type": "biochemical", "description": "as §1"}, "[19]": {"target": "T19, SAPK2b (Homo sapiens, UniProt Q15759)", "T19 construct": "purchased Millipore Co. Ltd. (KinaseProfiler service)", "experiment": "KinaseProfiler selectivity: SAPK2b", "assay_type": "biochemical", "description": "as §1"}, "[20]": {"target": "T20, SAPK3 (Homo sapiens, UniProt P53778)", "T20 construct": "purchased Millipore Co. Ltd. (KinaseProfiler service)", "T20 sequence (P53778 whole entry, species assumed)": "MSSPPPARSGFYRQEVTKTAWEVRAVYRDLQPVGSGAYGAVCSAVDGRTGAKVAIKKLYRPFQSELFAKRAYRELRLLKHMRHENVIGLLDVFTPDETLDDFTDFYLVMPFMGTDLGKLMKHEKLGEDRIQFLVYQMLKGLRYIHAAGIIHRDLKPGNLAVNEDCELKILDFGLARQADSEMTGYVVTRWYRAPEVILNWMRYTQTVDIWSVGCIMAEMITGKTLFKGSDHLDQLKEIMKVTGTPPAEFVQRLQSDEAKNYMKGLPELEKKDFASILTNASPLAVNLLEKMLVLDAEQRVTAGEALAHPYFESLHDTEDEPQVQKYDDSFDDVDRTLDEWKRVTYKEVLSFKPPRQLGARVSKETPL", "experiment": "KinaseProfiler selectivity: SAPK3", "assay_type": "biochemical", "description": "as §1"}, "[21]": {"test_system": "kinases in KinaseProfiler", "experiment": "KinaseProfiler panel as a whole (selectivity for other kinases)", "assay_type": "biochemical", "conditions": "concentration of 1,000 nM", "description": "as §1"}, "[22]": {"test_system": "IL-2-induced IFN-γ production", "experiment": "IL-2-induced IFN-γ production in mice", "assay_type": "in vivo, DBA/1J mice", "conditions": "Mus musculus, po", "description": "DBA/1J mice were dosed once via oral gavage with compounds. At 1 or 6 h after compound administration, the mice were injected intraperitoneally with 2 μg of recombinant mouse IL-2 and 10 μg of biotinylated anti-mouse IFN-γ capture antibody. After 6 h, the mice were euthanized, and blood was collected. Serum IFN-γ was quantified using a Mouse IFN-γ In Vivo Capture Assay Set (BD Biosciences).\nAfter 1 or 6 h, they were injected with IL-2 and anti-mouse IFN-γ capture antibody. At 6 h after the injection, blood samples were collected, and the serum IFN-γ levels were measured."}, "[23]": {"test_system": "rat collagen-induced arthritis model", "experiment": "Collagen-induced arthritis in rats", "assay_type": "in vivo, Lewis rats", "description": "CIA was induced in rats as previously described with some modifications. Briefly, type II collagen (Collagen Research Center, Saitama, Japan) was dissolved in 0.01 M acetic acid at 2 mg/mL, and the solution was emulsified in an equal volume of Freund’s incomplete adjuvant (Difco Laboratories, Detroit, MI). Lewis rats were immunized with 1 mL of the emulsion (1 mg of type II collagen) via ten intradermal injections on the back under anesthesia. The rats were then challenged with 0.2 mL of the emulsion injected into the base of the tail on day 8 under anesthesia. The test drugs were given orally once daily from day 1 to day 21 (preventive administration) or from day 15 to day 28 (therapeutic administration). After arthritis induction, the hind paw volume was measured by a water displacement method using a plethysmometer (Muromachi Kikai Co. Ltd., Tokyo, Japan). On day 22 or day 29, the rats were euthanized, and their hind paws were excised and X-rayed or processed for histological evaluation. Radiographs of the right hindlimbs were taken using a microfocal cone-beam X-ray CT scanner (MCT-CB100MF; Hitachi Medical Corporation, Tokyo, Japan). The severity of bone destruction was scored on a 3-point scale ranging from 0 to 2 for the following five joints: second metatarsal—second intertarsal joint, third metatarsal—third intertarsal joint, talus—central intertarsal joint, calcaneus—fourth intertarsal joint, and astragalo—tibial joint. For histological analysis, the formalin-fixed left hindlimbs were sectioned and stained with hematoxylin and eosin. The histology of the tarsal joints was evaluated by assessing the following parameters defined in the preliminary examination: inflammatory cell infiltration, synovial cell hyperplasia, cartilage destruction, and bone destruction. The severity of each histological change was scored on a 5-point scale ranging from 0 to 4. (Score 0: normal; Score 1: minimal, solitary (and very small) lesion; Score 2: slight, focal (and small) lesion; Score 3: moderate, scattered lesion; and Score 4: severe, extensive lesion).\n(§2) . The hind paw volume (a) and body weight (b) were measured periodically. Images of hematoxylin and eosin staining (c) and radiographs of hindlimbs (e) are shown. Histological change (d) and radiographical change (f) were scored. The results are expressed as mean ± SD. ^# p < 0.05, ^## p < 0.01, versus vehicle by the Steel test\nas §2, with “SD. *p < 0.05, **p < 0.01, versus vehicle by Dunnett’s test.” for “SD.”"}, "[24]": {"test_system": "human monocytes", "experiment": "GM-CSF-induced TNF-α production from monocytes (ELISA)", "conditions": "Monocyte, read-out: IC50, GM-CSF enhancement of TNF-α production upon LPS stimulation in monocytes", "procedure": "The cells were then cultured with 0.1 ng/mL lipopolysaccharide (LPS) for an additional 6 h at 37 °C. The supernatants were collected, and secretion of TNF-α was measured by ELISA."}}}
{"compound": "C[C@H]1CN(C(=O)CC#N)[C@]12CCN(c1ncnc3[nH]ccc13)C2", "note": "[JTE-052]", "values": [{"measurement": "IC50", "setting": "[1]", "value": "> 1000", "unit": "nM"}, {"measurement": "IC50", "setting": "[2]", "value": "> 1000", "unit": "nM"}, {"measurement": "IC50", "setting": "[3]", "value": "> 1000", "unit": "nM"}, {"measurement": "IC50", "setting": "[4]", "value": "> 1000", "unit": "nM"}, {"measurement": "IC50", "setting": "[5]", "value": "> 1000", "unit": "nM"}, {"measurement": "IC50", "setting": "[6]", "value": "> 1000", "unit": "nM"}, {"measurement": "IC50", "setting": "[7]", "value": "> 1000", "unit": "nM"}, {"measurement": "IC50", "setting": "[8]", "value": "> 1000", "unit": "nM"}, {"measurement": "IC50", "setting": "[9]", "value": "> 1000", "unit": "nM"}, {"measurement": "IC50", "setting": "[10]", "value": "> 1000", "unit": "nM"}, {"measurement": "IC50", "setting": "[11]", "value": "> 1000", "unit": "nM"}, {"measurement": "IC50", "setting": "[12]", "value": "> 1000", "unit": "nM"}, {"measurement": "IC50", "setting": "[13]", "value": "> 1000", "unit": "nM"}, {"measurement": "IC50", "setting": "[14]", "value": "> 1000", "unit": "nM"}, {"measurement": "IC50", "setting": "[15]", "value": "> 1000", "unit": "nM"}, {"measurement": "IC50", "setting": "[16]", "value": "> 1000", "unit": "nM"}, {"measurement": "IC50", "setting": "[17]", "value": "> 1000", "unit": "nM"}, {"measurement": "IC50", "setting": "[18]", "value": "> 1000", "unit": "nM"}, {"measurement": "IC50", "setting": "[19]", "value": "> 1000", "unit": "nM"}, {"measurement": "IC50", "setting": "[20]", "value": "> 1000", "unit": "nM"}, {"measurement": "inhibition of other kinases in KinaseProfiler", "setting": "[21]", "value": "did not inhibit any of the kinases even at the concentration of 1,000 nM, except for ROCK-II"}, {"measurement": "ED50", "setting": "[22]; dosed 1 h prior to IL-2 injection", "value": 0.24, "unit": "mg/kg"}, {"measurement": "ED50", "setting": "[22]; dosed 6 h prior to IL-2 injection", "value": 1.3, "unit": "mg/kg"}, {"measurement": "effect on bone and cartilage destruction (radiographic, histological), preventive administration", "setting": "[23]; oral once daily from day 1", "value": "inhibited radiographic and histological changes of bone destruction and cartilage destruction"}, {"measurement": "effect on hind paw swelling and joint inflammation, preventive administration", "setting": "[23]; oral once daily from day 1, JTE-052 0.1, 1, 10 mg/kg, MTX 0.3 mg/kg", "value": "prevented the development of hind paw swelling"}, {"measurement": "IC50", "setting": "[24]", "value": "277 ± 146", "unit": "nM"}]}
